Our source for the IC50 values is patent US9126999B2, “Tetrahydropyrazolopyrimidine compounds” (EISAI R&D MANAGEMENT CO., LTD., priority 2012, dated 2015).

Bounds are passed on as bounds.

In experiment [1] the test system is T1, Human TLR7/8.
T1 construct: IC50; other: Hu PBMC; ligand RNA-Ig; analyte IP-10
Briefly: Human PBMC cell-based assay, RNA-Ig (SL4-Ig) stimulus, cytokine ELISA. To be noted: Hu PBMC; ligand RNA-Ig; analyte IP-10. In short, it runs like this: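 Ficoll-isolated human PBMC treated in triplicate with antagonist (final 0.1% DMSO), then stimulated with RNA-Ig (SL4-Ig) complex preincubated 15-30 min. Incubation 20 h at 37° C., 5% CO2; supernatant cytokines quantified by ELISA.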
(In general: ELISA stands for enzyme-linked immunosorbent assay.)

In experiment [2] the test system is T2, Human TLR7/8.
T2 construct: IC50; other: Hu PBMC; ligand RNA-Ig; analyte IL-6; analyte TNFα; ligand R848; IC50 against the RNA-Ig TLR7/8 stimulus; cytokine responses to RNA-Ig complexes in vitro; potency against the RNA-Ig TLR7/8 stimulus versus HCQ
Briefly: Human PBMC cell-based assay, R848 stimulus, IL-6 ELISA. To be noted: Hu PBMC; ligand R848; analyte IL-6. On the procedure: (§1) Human peripheral blood mononuclear cells (PBMC) were isolated from freshly-drawn heparinized (10 USP units/ml, Hospira, Lakeforest, Ill.) healthy donor whole blood by density gradient (Histopaque® 1077, Sigma, Inc., St. Louis, Mo.). Briefly, 25 ml blood was diluted with 15 ml PBS (without Ca^2+, Mg^2+) in a 50 ml conical tube, and 12 ml Histopaque was underlaid using a spinal needle. Tubes were centrifuged for 45 minutes at 1200 rpm (350×g), and PBMC were collected from the buffy coat. Cells were then washed twice in PBS, and red blood cells were lysed by suspension in 5 ml ammonium chloride solution (1× Red Blood Cell Lysis Buffer, eBioscience) for 5 minutes at room temperature. […]
(§2) Antagonist compounds solubilized and serial diluted in 100% DMSO were added in triplicate to cells to yield a final concentration of 0.1% DMSO (v/v). […] Cell culture supernatants were collected, and levels of various human cytokines were assessed as indicated by standard ELISA procedure according to the manufacturer's recommended protocol (BD Biosciences, Inc., San Diego, Calif.).

In a further experiment the target is T3, Human TLR1/2 (Homo sapiens, UniProt O60603+Q15399).
T3 construct: endogenous in cells; host or cells: primary human PBMC from healthy donor blood
T3 sequence (Q15399 25-786): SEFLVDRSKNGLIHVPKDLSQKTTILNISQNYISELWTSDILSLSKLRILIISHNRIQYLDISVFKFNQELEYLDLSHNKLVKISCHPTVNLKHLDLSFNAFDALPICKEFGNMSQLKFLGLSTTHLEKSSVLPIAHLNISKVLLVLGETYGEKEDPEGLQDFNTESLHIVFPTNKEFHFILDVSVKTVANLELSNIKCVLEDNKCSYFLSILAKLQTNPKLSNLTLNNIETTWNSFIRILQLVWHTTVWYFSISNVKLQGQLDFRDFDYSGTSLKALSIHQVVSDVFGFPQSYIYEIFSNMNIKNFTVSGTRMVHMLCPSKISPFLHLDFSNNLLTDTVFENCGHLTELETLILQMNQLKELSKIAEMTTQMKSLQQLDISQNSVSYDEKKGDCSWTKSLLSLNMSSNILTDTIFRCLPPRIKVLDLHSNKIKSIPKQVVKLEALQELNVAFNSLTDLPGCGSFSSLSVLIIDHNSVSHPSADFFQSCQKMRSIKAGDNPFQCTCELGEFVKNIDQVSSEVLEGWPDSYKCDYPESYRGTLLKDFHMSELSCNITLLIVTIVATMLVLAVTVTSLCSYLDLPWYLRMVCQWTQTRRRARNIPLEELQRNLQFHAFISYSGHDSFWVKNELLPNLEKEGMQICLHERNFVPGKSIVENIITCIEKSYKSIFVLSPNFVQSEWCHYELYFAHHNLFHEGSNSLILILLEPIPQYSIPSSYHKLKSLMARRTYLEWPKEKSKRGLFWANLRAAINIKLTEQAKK
T3 sequence (O60603 19-784 limits assumed): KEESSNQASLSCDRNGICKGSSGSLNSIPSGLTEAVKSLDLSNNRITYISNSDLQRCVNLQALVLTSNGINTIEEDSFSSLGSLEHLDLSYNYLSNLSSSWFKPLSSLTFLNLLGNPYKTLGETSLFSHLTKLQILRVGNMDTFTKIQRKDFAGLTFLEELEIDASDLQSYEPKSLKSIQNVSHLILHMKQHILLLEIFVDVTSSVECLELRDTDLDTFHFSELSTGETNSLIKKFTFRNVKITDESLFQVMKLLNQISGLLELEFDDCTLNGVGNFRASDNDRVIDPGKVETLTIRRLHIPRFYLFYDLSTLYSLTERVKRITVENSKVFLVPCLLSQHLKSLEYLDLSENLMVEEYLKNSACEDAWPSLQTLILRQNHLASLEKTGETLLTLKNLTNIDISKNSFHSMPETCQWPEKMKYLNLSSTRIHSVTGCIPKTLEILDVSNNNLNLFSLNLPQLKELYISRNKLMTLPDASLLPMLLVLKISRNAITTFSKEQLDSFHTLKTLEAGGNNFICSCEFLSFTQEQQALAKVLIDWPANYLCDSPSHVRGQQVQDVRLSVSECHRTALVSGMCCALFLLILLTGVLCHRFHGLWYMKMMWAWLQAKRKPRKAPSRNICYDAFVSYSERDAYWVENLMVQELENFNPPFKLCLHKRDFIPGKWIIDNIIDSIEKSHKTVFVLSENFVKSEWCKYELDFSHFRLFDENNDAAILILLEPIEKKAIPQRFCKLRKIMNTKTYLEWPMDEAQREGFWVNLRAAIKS
Description: Human PBMC cell-based assay, Pam3CSK4 stimulus, IL-6 ELISA. To be noted: Hu PBMC; ligand Pam3CSK4; analyte IL-6. On the procedure: as §1, §2

For the compound `COc1ccc([C@@H]2C[C@H](C(F)(F)F)n3nc(-c4ccc(C(=O)N5CCNCC5)cc4)cc3N2)cc1OC` [ER-892887, (4-((5S,7R)-5-(3,4-dimethoxyphenyl)-7-(trifluoromethyl)-4,5,6,7-tetrahydropyrazolo[1,5-a]pyrimidin-2-yl)phenyl)(piperazin-1-yl)methanone], the results for the IC50 in the experiment on Human TLR7/8 [1], in the experiment on Human TLR7/8 [2] and on Human TLR1/2 were 45 nM, 16 nM and more than 10000 nM, respectively.
